Laboratory results as given in US7645736B2, “Integrin inhibitors for the treatment of eye diseases” (Merck Patent GmbH, priority 2004, dated 2010).

Test system: bFGF-stimulated corneal angiogenesis
Experiment: rabbit corneal micropocket model, single intravitreal injection
Format: in vivo
Conditions: single (day 0) intravitreal, 100 μL, drug = 2 mg/eye; for inhibition [%] of neovascularisation area: vs saline control
Protocol: (1996). In this model angiogenesis is stimulated by implantation of Hydron pellets containing an angiogenesis stimulating cytokine like, for example, fibroblast growth factor (FGF) or vascular endothelial growth factor (VEGF) into the cornea. After implantation the active compound to be tested is administered by paralimbal intravitreal injection. Effect on neovascularisation is measured after predetermined time intervals by visual examination using a microscope, photographing and computer-assisted quantification of photographs.
The effect of intravitreal application of an αvβ3 and/or αvβ5 inhibitor was examined in rabbit corneal micropocket model as described by Shaffer R. W. (see above). As an example for an αvβ3 and/or αvβ5 inhibitor 2-(2,2-dimethylpropyloxycarboxamido)-3{3,4-dihydro-2-[N-(2-imidazoly)-carbamoylethyl]-2H-1,4-benzoxazin-3-on-6-yl}propionic acid was used in the experiment. For induction of angiogenesis Hydron pellets containing basic fibroblast growth factor (bFGF) were used. Preparation of bFGF containing implants was performed by casting Hydron [poly(hydroxyethyl)methacrylate] in specially prepared Teflon pegs that have a 2.5 mm core drilled into their surfaces. Approximately 12 μl of casting material was placed into each peg and polymerized overnight in a sterile hood, then sterilized by ultraviolet irradiation.
The experiment consisted of 10 animals; in each eye of the animals one individual pellet was implanted into a surgically created “pocket” in the mid stroma of the rabbit cornea. The surgical procedure was done under sterile technique using a Moeller-Wedel Microflex operating microscope (Haag-Streit Company, Germany) equipped with a beamsplitter and camera for photographically recording individual comeas. A 69 Beaver blade was used to create a 3 mm by 5 mm “pocket” to a depth of half the comeal thickness. The stroma was dissected peripherally using an spatula and the pellet implanted with its peripheral margin 2 mm from limbus. […] For comparison the same procedure was performed in the other 5 animals using saline only. Following implantation the eyes Were photographed and the area of neovascularisation measured after predetermined intervals.

CC(C)(C)COC(=O)NC(Cc1ccc2c(c1)NC(=O)C(CCC(=O)Nc1ncc[nH]1)O2)C(=O)O (centres unmarked) [Drug, 2-(2,2-dimethylpropyloxycarboxamido)-3-{3,4-dihydro-2-[N-(2-imidazolyl)-carbamoylethyl]-2H-1,4-benzoxazin-3-on-6-yl}propionic acid]
mean area [mm^2] of neovascularisation (5 days post implantation): 1.71 mm^2 | inhibition [%] of neovascularisation area (5 days post implantation): 56.3% | mean area [mm^2] of neovascularisation (7 days post implantation): 4.65 mm^2 | inhibition [%] of neovascularisation area (7 days post implantation): 13.4% | mean area [mm^2] of neovascularisation (10 days post implantation): 5.10 mm^2 | inhibition [%] of neovascularisation area (10 days post implantation): 45.8% | mean area [mm^2] of neovascularisation (14 days post implantation): 9.94 mm^2 | inhibition [%] of neovascularisation area (14 days post implantation): 40.0%
